Where two headings read alike, the source gives them in different places.
Legend:
hERG = hERG (Homo sapiens (Human), UniProt Q12809); test: hERG assay 1 (standard), SyncroPatch 384PE; format: cell-based; settings: CHO cells, room temperature, up to 40 uM
How it was run: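 Automated patch clamp on hERG-expressing CHO-K1 cells at room temperature, +60/−40 mV protocol every 15 s. Six-point cumulative concentrations 139 nM to 40 uM (0.33% DMSO final); IC50 from one-site fit of % inhibition. Wells required ≥30 MegaOhm seal, current >0.2 nA, Z prime >0.4.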

[1] = Human liver microsomes (HLMs) intrinsic clearance assay; format: in vitro ADME; settings: human, microsomes; for HLM CLint: 1 µM, pH 7.4
[2] = pH 7.4, 1 mg/mL HLM, NADPH, read-out: HLM CLint

Chain of hERG (Q12809 whole entry): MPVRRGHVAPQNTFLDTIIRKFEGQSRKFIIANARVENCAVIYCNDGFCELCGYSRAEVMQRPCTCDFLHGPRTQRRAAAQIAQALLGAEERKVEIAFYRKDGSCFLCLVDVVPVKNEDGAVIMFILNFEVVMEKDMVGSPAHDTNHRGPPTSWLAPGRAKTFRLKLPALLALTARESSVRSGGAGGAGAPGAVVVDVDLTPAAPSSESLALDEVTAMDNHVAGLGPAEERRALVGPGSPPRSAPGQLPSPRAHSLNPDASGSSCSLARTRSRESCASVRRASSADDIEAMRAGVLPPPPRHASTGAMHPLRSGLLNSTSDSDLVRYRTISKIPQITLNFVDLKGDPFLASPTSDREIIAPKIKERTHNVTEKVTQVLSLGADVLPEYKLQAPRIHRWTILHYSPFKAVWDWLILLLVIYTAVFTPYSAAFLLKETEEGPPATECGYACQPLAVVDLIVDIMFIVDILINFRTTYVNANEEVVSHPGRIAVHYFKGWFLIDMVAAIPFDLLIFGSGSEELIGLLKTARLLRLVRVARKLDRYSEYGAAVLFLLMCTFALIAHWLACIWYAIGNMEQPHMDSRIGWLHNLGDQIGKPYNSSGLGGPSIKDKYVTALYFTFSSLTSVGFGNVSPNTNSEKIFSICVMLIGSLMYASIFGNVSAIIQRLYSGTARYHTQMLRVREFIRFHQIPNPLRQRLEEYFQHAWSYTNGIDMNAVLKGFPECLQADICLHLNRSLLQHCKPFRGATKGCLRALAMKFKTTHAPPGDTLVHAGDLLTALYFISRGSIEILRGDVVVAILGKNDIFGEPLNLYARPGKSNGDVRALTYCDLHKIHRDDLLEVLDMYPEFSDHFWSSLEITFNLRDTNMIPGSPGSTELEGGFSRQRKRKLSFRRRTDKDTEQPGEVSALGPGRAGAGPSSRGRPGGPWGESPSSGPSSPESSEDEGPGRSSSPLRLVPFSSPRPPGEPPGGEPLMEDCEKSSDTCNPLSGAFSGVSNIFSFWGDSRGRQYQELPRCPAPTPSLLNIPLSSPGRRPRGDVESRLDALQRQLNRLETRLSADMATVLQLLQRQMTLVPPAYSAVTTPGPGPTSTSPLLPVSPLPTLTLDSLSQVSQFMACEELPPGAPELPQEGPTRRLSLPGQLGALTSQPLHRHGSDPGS

| SMILES | microsomal CLint at 1 µM ([1]; pH 7.4, HLM CLint) [µL/min/mg] | HLM CLint [1] [µL/min/mg] | IC50 (hERG) [µM] | microsomal CLint at 1 µM [1, 2] [µL/min/mg] |
| --- | --- | --- | --- | --- |
| Cc1c(C(=O)[C@@H]2CCN(C(=O)[C@@H]3CC[C@@H](C)N3)[C@@H](C)C2)c2ccncc2n1-c1ccc(F)cc1C(=O)N(C(C)C)C(C)C (stereo in doubt) [Example 64, 5-Fluoro-N,N-diisopropyl-2-(2-methyl-3-((2S,4RS)-2-methyl-1-((2S,5R)-5-methylpyrrolidine-2-carbonyl)piperidine-4-carbonyl)-1H-pyrrolo[2,3-c]pyridin-1-yl)benzamide] | 88 |  | 32.7 |  |
| Cc1c(C(=O)C2CCN(C(=O)[C@@H]3CCC(C)(C)N3)CC2)c2ccncc2n1-c1ccc(F)cc1C(=O)N(C(C)C)C(C)C (single isomer, unassigned) [Compound 56-2] |  | 91 | > 40 |  |
| CCN(C(=O)c1cc(F)ccc1-n1c(C)c(C(=O)C2CCN(C(=O)[C@@H]3CCC(C)(C)N3)CC2)c2ccncc21)C(C)C (single isomer, unassigned) [Example 50-2] |  | 48 | > 40 |  |
| CC(C)N(C(=O)c1cc(F)ccc1-n1cc(C(=O)C2CN(C(=O)[C@H]3N[C@H]4C[C@@H]3[C@@H](F)C4)C2)c2ccncc21)C(C)C [Example 7, 5-Fluoro-2-(3-(1-((1S,3S,4S,5S)-5-fluoro-2-azabicyclo[2.2.1]heptane-3-carbonyl)azetidine-3-carbonyl)-1H-pyrrolo[2,3-c]pyridin-1-yl)-N,N-diisopropylbenzamide] | 148 |  | > 40 |  |
| C=C1C[C@@H]2CC[C@H]1[C@@H](C(=O)N1CCC(C(=O)c3cn(-c4ccc(F)cc4C(=O)N(C(C)C)C(C)C)c4cnccc34)CC1)N2 [Example 18, 5-Fluoro-N,N-diisopropyl-2-(3-(1-((1S,3S,4R)-5-methylene-2-azabicyclo[2.2.2]-octane-3-carbonyl)piperidine-4-carbonyl)-1H-pyrrolo[2,3-c]pyridin-1-yl)benzamide] | 172 |  | > 40 |  |
| CC(C)N(C(=O)c1cc(F)ccc1-n1cc(C(=O)C2CCN(C(=O)[C@H]3NC[C@@H]4C[C@@H]43)CC2)c2ccncc21)C(C)C [Example 19, 2-(3-(1-((1S,2S,5R)-3-Azabicyclo[3.1.0]hexane-2-carbonyl)piperidine-4-carbonyl)-1H-pyrrolo[2,3-c]pyridin-1-yl)-5-fluoro-N,N-diisopropylbenzamide] | 56 |  | > 40 |  |
| CCN(C(=O)c1cc(F)ccc1-n1c(C)c(C(=O)[C@@H]2CCN(C(=O)[C@@H]3CC[C@@H](C)N3)[C@@H](C)C2)c2ccncc21)C(C)C (stereo in doubt) [Example 65, N-Ethyl-5-fluoro-N-isopropyl-2-(2-methyl-3-((2S,4RS)-2-methyl-1-((2S,5R)-5-methylpyrrolidine-2-carbonyl)piperidine-4-carbonyl)-1H-pyrrolo[2,3-c]pyridin-1-yl)benzamide] | 55 |  | > 40 |  |
| CC(C)N(C(=O)c1cc(F)ccc1-n1cc(C(=O)C2CCN(C(=O)[C@@H]3CCC4(CC4)N3)CC2)c2ccncc21)C(C)C [Example 24, (S)-2-(3-(1-(4-Azaspiro[2.4]heptane-5-carbonyl)piperidine-4-carbonyl)-1H-pyrrolo[2,3-c]pyridin-1-yl)-5-fluoro-N,N-diisopropylbenzamide] |  |  | 38.3 | 145 |
| C[C@@H]1COC[C@@H](C)N1C(=O)c1cc(F)ccc1-n1cc(C(=O)C2CCN(C(=O)[C@H]3N[C@@H]4CC[C@H]3C4)CC2)c2ccncc21 [Example 34, (1-((1R,3S,4S)-2-Azabicyclo[2.2.1]heptane-3-carbonyl)piperidin-4-yl)(1-(2-((3R,5R)-3,5-dimethylmorpholine-4-carbonyl)-4-fluorophenyl)-1H-pyrrolo[2,3-c]pyridin-3-yl)methanone] | 11 |  | > 40 |  |
| CCN(C(=O)c1cc(F)ccc1-n1c(C)c(C(=O)C2CCN(C(=O)[C@H]3N[C@@H]4CC[C@H]3C4)CC2)c2ccncc21)C(C)C [Example 46, 2-(3-(1-((1R,3S,4S)-2-Azabicyclo[2.2.1]heptane-3-carbonyl)piperidine-4-carbonyl)-2-methyl-1H-pyrrolo[2,3-c]pyridin-1-yl)-N-ethyl-5-fluoro-N-isopropylbenzamide] | 50 |  | > 40 |  |
| CC(C)N(C(=O)c1cc(F)ccc1-n1cc(C(=O)C2CCN(C(=O)[C@H]3NC[C@@H]4CCC[C@@H]43)CC2)c2ccncc21)C(C)C [Example 21, 5-Fluoro-N,N-diisopropyl-2-(3-(1-((1S,3αR,6αS)-octahydrocyclopenta[c]pyrrole-1-carbonyl)piperidine-4-carbonyl)-1H-pyrrolo[2,3-c]pyridin-1-yl)benzamide] | 197 |  | > 40 |  |
| CCN(C(=O)c1cc(F)ccc1-n1cc(C(=O)C2CCN(C(=O)[C@H]3N[C@H]4C[C@@H]3[C@@H](F)C4)CC2)c2ccncc21)C(C)C [Example 30, N-Ethyl-5-fluoro-2-(3-(1-((1S,3S,4S,5S)-5-fluoro-2-azabicyclo[2.2.1]heptane-3-carbonyl)piperidine-4-carbonyl)-1H-pyrrolo[2,3-c]pyridin-1-yl)-N-isopropylbenzamide] | 54 |  | > 40 |  |
| C[C@@H]1CCC[C@H](C)N1C(=O)c1cc(F)ccc1-n1cc(C(=O)C2CCN(C(=O)[C@H]3N[C@@H]4CC[C@H]3C4)CC2)c2ccncc21 [Example 33, (1-((1R,3S,4S)-2-Azabicyclo[2.2.1]heptane-3-carbonyl)piperidin-4-yl)(1-(2-((2R,6S)-2,6-dimethylpiperidine-1-carbonyl)-4-fluorophenyl)-1H-pyrrolo[2,3-c]pyridin-3-yl)methanone] | 50 |  | > 40 |  |
| Cc1c(C(=O)C2CCN(C(=O)[C@H]3NC[C@@H]4C[C@@H]43)CC2)c2ccncc2n1-c1ccc(F)cc1C(=O)N(CC(F)(F)F)C(C)C (single isomer, unassigned) [Example 51-2] |  | 52 | > 40 |  |
| CCN(C(=O)c1cc(F)ccc1-n1c(C)c(C(=O)[C@@H]2CCN(C(=O)[C@@H]3CCC4(CC4)N3)[C@@H](C)C2)c2ccncc21)C(C)C (single isomer, unassigned) [Example 52-1, N-Ethyl-5-fluoro-N-isopropyl-2-(2-methyl-3-((2R*,4S*)-2-methyl-1-((S)-4-azaspiro[2.4]heptane-5-carbonyl)piperidine-4-carbonyl)-1H-pyrrolo[2,3-c]pyridin-1-yl)benzamide] |  |  |  | 150 |

Now from value to compound, other results behind:

| microsomal CLint at 1 µM ([1]; pH 7.4, HLM CLint) [µL/min/mg] | HLM CLint [1] [µL/min/mg] | SMILES | IC50 (hERG) [µM] | microsomal CLint at 1 µM [1, 2] [µL/min/mg] |
| --- | --- | --- | --- | --- |
| 219 |  | CC(C)c1ncsc1-c1cc(F)ccc1-n1cc(C(=O)C2CCN(C(=O)[C@H]3N[C@@H]4CC[C@H]3C4)CC2)c2ccncc21.O=CO [Example 42, (1-((1R,3S,4S)-2-Azabicyclo[2.2.1]heptane-3-carbonyl)piperidin-4-yl)(1-(4-fluoro-2-(4-isopropylthiazol-5-yl)phenyl)-1H-pyrrolo[2,3-c]pyridin-3-yl)methanone 1·formic acid] | > 40 |  |
| 119 |  | CC(C)(F)c1ncccc1-c1cc(F)ccc1-n1cc(C(=O)C2CN(C(=O)[C@H]3N[C@@H]4CC[C@H]3C4)C2)c2ccncc21 [Example 13, (1-((1R,3S,4S)-2-Azabicyclo[2.2.1]heptane-3-carbonyl)azetidin-3-yl)(1-(4-fluoro-2-(2-(2-fluoropropan-2-yl)pyridin-3-yl)phenyl)-1H-pyrrolo[2,3-c]pyridin-3-yl)methanone] | 35.8 |  |
| 182 |  | CC(C)c1ncccc1-c1cc(F)ccc1-n1cc(C(=O)C2CN(C(=O)[C@H]3N[C@@H]4CC[C@H]3C4)C2)c2ccncc21 [Example 10, (1-((1R,3S,4S)-2-Azabicyclo[2.2.1]heptane-3-carbonyl)azetidin-3-yl)(1-(4-fluoro-2-(2-isopropylpyridin-3-yl)phenyl)-1H-pyrrolo[2,3-c]pyridin-3-yl)methanone] | > 40 |  |
| 180 |  | CC(C)c1ccncc1-c1cc(F)ccc1-n1cc(C(=O)C2CCN(C(=O)[C@H]3N[C@@H]4CC[C@H]3C4)CC2)c2ccncc21 [Example 41, (1-((1R,3S,4S)-2-Azabicyclo[2.2.1]heptane-3-carbonyl)piperidin-4-yl)(1-(4-fluoro-2-(4-isopropylpyridin-3-yl)phenyl)-1H-pyrrolo[2,3-c]pyridin-3-yl)methanone] | > 40 |  |
| 216 |  | CC(C)c1ncsc1-c1cc(F)ccc1-n1cc(C(=O)C2CN(C(=O)[C@H]3N[C@@H]4CC[C@H]3C4)C2)c2ccncc21.O=CO [Example 12, (1-((1R,3S,4S)-2-Azabicyclo[2.2.1]heptane-3-carbonyl)azetidin-3-yl)(1-(4-fluoro-2-(4-isopropylthiazol-5-yl)phenyl)-1H-pyrrolo[2,3-c]pyridin-3-yl)methanone 1·formic acid] | > 40 |  |
| 132 |  | CC(C)N(C(=O)c1cc(F)ccc1-n1cc(C(=O)C2CN(C(=O)[C@H]3N[C@@H]4CC[C@H]3C4)C2)c2ccnc(F)c21)C(C)C [Example 15, 2-(3-(1-((1R,3S,4S)-2-Azabicyclo[2.2.1]heptane-3-carbonyl)azetidine-3-carbonyl)-7-fluoro-1H-pyrrolo[2,3-c]pyridin-1-yl)-5-fluoro-N,N-diisopropylbenzamide] | 24.9 |  |
| 40 |  | CC(C)N(C(=O)c1cc(F)ccc1-n1cc(C(=O)C2CN(C(=O)[C@H]3NC4CCC3CC4)C2)c2ccncc21)C(C)C [Example 6, (S)-2-(3-(1-(2-Azabicyclo[2.2.2]octane-3-carbonyl)azetidine-3-carbonyl)-1H-pyrrolo[2,3-c]pyridin-1-yl)-5-fluoro-N,N-diisopropylbenzamide] |  |  |
| 27 |  | CCN(C(=O)c1cc(F)ccc1-n1cc(C(=O)C2CN(C(=O)[C@H]3NC4CCC3CC4)C2)c2ccncc21)C(C)C [Example 9, (S)-2-(3-(1-(2-Azabicyclo[2.2.2]octane-3-carbonyl)azetidine-3-carbonyl)-1H-pyrrolo[2,3-c]pyridin-1-yl)-N-ethyl-5-fluoro-N-isopropylbenzamide] |  |  |
